Assay results: the NIST ThermoML archive (doi:10.1016/j.jct.2012.03.022)
± gives the expanded uncertainty stated by the source.

Settings: Liquid, Closed cell (Static) method

vapor or sublimation pressure (258.15 K): 148.6 ± 1 kPa | vapor or sublimation pressure (268.15 K): 219.4 ± 1.1 kPa | vapor or sublimation pressure (278.15 K): 314.1 ± 1.1 kPa | vapor or sublimation pressure (288.15 K): 437.8 ± 1.2 kPa
SMILES: CC(F)F [1,1-difluoroethane]
